How the values were obtained:
porcine model of SBS [1] = test: Growth (weight) in neonatal porcine model of SBS; type: in vivo, piglets; conditions: median ± IQR; for Change in weight: final minus starting weight, 4 days at 1 g/kg*day
Description: A study was conducted to evaluate, in an established porcine model of SBS, the systemic absorption and intestinal adaptation capacity of an ethyl ester form of DHA in combination with a surface active agent composition effective to spontaneously form micelles with said fatty acids upon contact with an aqueous media. In certain embodiments, the self-micellizing compositions may further contain at least one additional omega-3 fatty acid (either in the triglyceride, ester, or free fatty acid form), for example EPA or other known omega-3 fatty acids as disclosed herein. In certain embodiments, the self-micellizing compositions may further contain an anti-oxidant, such as tocopherol. In certain embodiments, the self-micellizing compositions may further contain an omega-6 fatty acid (either in the triglyceride, ester, or free fatty acid form), for example arachidonic acid (ARA), linoleic acid (LA), gamma-linolenic acid (GLA) or the omega-6 isomer of DPA, also known as osbond acid. This composition allows for micelle formation independent of the presence of bile salts as compared to a standard […] of DHA without a surface active agent (Control).
(§1) Newborn, crossbred (Hampshire×Landrace×Duroc×Yorkshire) piglets (n=10), were weighed, placed in cages in a heated room (˜30° C.), and were fed with a commonly available sow milk replacement formula. After an overnight fast, piglets underwent surgery for the placement of jugular and intragastric catheters for postoperative parenteral and enteral nutrition, respectively, and small bowel resection surgery. Following a 4-cm midline incision an 80% mid-jejunoileal resection was performed. The total amount of bowel resection was approximated using the following equation: total intestinal length=280 cm×body weight^0.60. A 20% remnant (˜60 cm total per kg BW) remained and was represented equally between proximal jejunum and ileum, representing ˜30 cm each remnant segment per kg bodyweight. ˜45 cm of jejunum distal to the ligament of Treitz and ˜45 cm of ileum proximal to the ileocecal junction were measured using sterile silk ribbon placed along the antimesentric border of the gently stretched small intestine. Intestine not included in the measurement was removed via cauterization. Bowel continuity was restored using an end-to-end jejunoileal anastomosis.
Continuous enteral feeding with a commonly available sow milk replacer formula, also lacking DHA, was slowly introduced 24 h after intestinal resection at 3 mL/kg*h via the intragastric catheter. The volume of enteral feedings was then advanced every 24 h by 1 ml/kg*h until a final enteral volume of 5 mL/kg*h was achieved on postoperative day 3 which represents approximately 50% of full enteral feeding volume and nutrient intake.
(§2) The control group received a standard DHA ethyl ester preparation of substantially pure DHA ethyl ester (>90% DHA ethyl ester).
Piglets were weighed every other day. In addition to calculating a change in weight by subtracting the starting weight at the time of randomization from the final weight, percent weight change and growth velocity (g/kg*d) were also calculated. Percent weight change was calculated by: [((final weight-starting weight)/starting weight)×100]. Growth velocity was calculated by: [(weight change/starting weight)/4 days of treatment].
The primary outcome measure was a change in plasma DHA level in the SBS-treated group versus control group. […] Variable summary statistics are expressed as median±interquartile range (IQR). […]

porcine model of SBS [2] = test: Small intestine resection and final organ weights, porcine SBS model; type: in vivo, piglets; conditions: at sacrifice after 4 days; median ± IQR
Description: as §1, §2
(§3) Samples of intestinal tissue resected at the time of surgery and remnants at sacrifice were collected from proximal jejunum (proximal to anastomosis) and distal ileum (distal to anastomosis) and morphological measurements of the crypts and villi were measured. Only intact villi and crypts were measured. All measurements were made by the same, single, blinded observer.
(§4) The primary outcome measure was a change in plasma DHA level in the SBS-treated group versus control group. Given the small number of piglets per group, appropriate small group statistical methods were used to evaluate differences in outcome variables. Variable summary statistics are expressed as median±interquartile range (IQR). The Wilcoxon Rank-Sum test, which is appropriate to compare two non-normal distributions as is common in small sample size, was used to compare outcome measures between groups; while the Wilcoxon signed-rank test, which is appropriate for repeated measurements within the same animal, was used to compare paired, before and after surgery outcome measures within groups. Differences in growth measurements and fatty acid levels over time between groups were evaluated using generalized linear mixed models (GLMM) to account for repeated measures and non-Gaussian, non-normal data.

[3] = Longitudinal plasma fatty acid levels, porcine SBS model; type: in vivo, piglets
Source text: as §2
Blood samples for systemic fatty acid profiles were obtained on the day of surgery and then twice daily until sacrifice on fourth postoperative day. Plasma fatty acids were isolated and measured.
as §4

porcine model of SBS [4] = test: Small bowel morphometry (villus height, crypt depth), porcine SBS model; type: in vivo, piglets; conditions: within group
Description: as §2, §3, §4

patients with PSC = conditions: 12-month open-label pilot study, n=23; cited from earlier work
COX-1 = COX-1 (Homo sapiens, UniProt P23219); conditions: enzyme involved in synthesis of TXA2; cited from earlier work
[5] = in humans; cited from earlier work
[6] = Time 0, at the time of surgery (baseline)
[7] = within 12 hours, after the first enteral dose of DHA
[8] = end of experiment vs time of surgery

Chain of COX-1 (P23219 24-599): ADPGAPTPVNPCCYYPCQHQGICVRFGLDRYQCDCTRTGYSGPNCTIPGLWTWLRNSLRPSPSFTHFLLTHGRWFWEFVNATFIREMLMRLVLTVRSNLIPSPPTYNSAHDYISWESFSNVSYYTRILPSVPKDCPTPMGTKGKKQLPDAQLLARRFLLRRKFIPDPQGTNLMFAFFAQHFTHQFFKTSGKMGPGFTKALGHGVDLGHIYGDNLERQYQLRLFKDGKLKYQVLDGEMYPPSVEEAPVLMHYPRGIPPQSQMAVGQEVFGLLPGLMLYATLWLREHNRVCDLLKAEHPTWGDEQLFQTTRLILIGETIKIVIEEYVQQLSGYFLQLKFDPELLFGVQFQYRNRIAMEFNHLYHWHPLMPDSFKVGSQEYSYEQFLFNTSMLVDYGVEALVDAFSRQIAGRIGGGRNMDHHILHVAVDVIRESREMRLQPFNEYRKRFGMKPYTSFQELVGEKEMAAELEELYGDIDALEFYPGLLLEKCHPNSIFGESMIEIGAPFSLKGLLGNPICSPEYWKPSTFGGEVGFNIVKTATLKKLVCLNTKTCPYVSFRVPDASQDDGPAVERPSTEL

`CC/C=C\C/C=C\C/C=C\C/C=C\C/C=C\C/C=C\CCC(=O)OCC` [Control, DHA ethyl ester] showed a Growth velocity (porcine model of SBS [1]; 4 days of treatment) of 13.5 ± 30.1 g/kg/day, a Weight change (porcine model of SBS [1]; 4 days of treatment) of 5.4 ± 12.1% and a Weight at finish (porcine model of SBS [1]; after 4 days at 1 g/kg*day via intragastric catheter) of 2594 ± 170 g. For the same compound, the Change in weight (porcine model of SBS [1]) was 132 ± 278 g, the Change in weight (porcine model of SBS [1]; listed as control) was 132 ± 278 g and the “Brain (final weight)” value (porcine model of SBS [2]) was 14.0 ± 1.6 g/kg. The “Ileum (final length)” value (porcine model of SBS [2]) was 17.5 ± 4.7 cm/kg, the “Ileum (final weight)” value (porcine model of SBS [2]) was 5.3 ± 1.2 g/kg and the “Jejunum (final length)” value (porcine model of SBS [2]) was 21.2 ± 6.7 cm/kg. For the same compound, the “Jejunum (final weight)” value (porcine model of SBS [2]) was 5.2 ± 1.4 g/kg, the “Liver (final weight)” value (porcine model of SBS [2]) was 36.3 ± 2.5 g/kg and the “Initial plasma ARA level” value [3, 6] was 11.8±0.5 mol %. For the same compound, the “Initial plasma DHA level” value [3, 6] was 2.3±0.4 mol %, the “Initial plasma EPA level” value [3, 6] was 0.3±0.1 mol % and the “Initial plasma LA level” value [3, 6] was 16.6±1.8 mol %. The “Plasma ARA level” value ([3]; third postoperative day) was 8.7±0.8 mol %, the “Plasma DHA level” value [3, 7] was 2.5 mol % and the “Plasma EPA level” value [3, 7] was 0.2±0.005 mol %. For the same compound, the “Villus height of distal ileum, Final vs Day 0” value (porcine model of SBS [4]; [8]) was “reduced, but not significantly different”, the “Villus height of proximal jejunum, Final vs Day 0” value (porcine model of SBS [4]; [8]) was “not significantly different” and the “Crypt depth of distal ileum, final vs baseline” value (porcine model of SBS [4]) was “increased from baseline”. For the same compound, the “Crypt depth of proximal jejunum, final vs baseline” value (porcine model of SBS [4]; p<0.05) was “increased”.

In the case of `CC/C=C\C/C=C\C/C=C\C/C=C\C/C=C\C/C=C\CCC(=O)O` [DHA, (4Z,7Z,10Z,13Z,16Z,19Z)-docosa-4,7,10,13,16,19-hexaenoic acid], the Alkaline phosphatase (patients with PSC) is given as “significant decline” and the “Serum DHA levels” value (patients with PSC) is given as “increase”.

In the case of `CC/C=C\C/C=C\C/C=C\C/C=C\C/C=C\CCCCCC(=O)O` [Omega-3 DPA, all-cis-7,10,13,16,19-docosapentaenoic acid], the COX-1 activity (COX-1) is given as “potent inhibitor”.

In the case of `CC/C=C\C/C=C\C/C=C\CCCCCCCC(=O)O` [ALA, alpha-linolenic acid], the “Conversion to DHA” value [5] is listed as 2-5% and the “Conversion to EPA” value [5] is listed as 5-10%.

From patent US10898458B2, “Self-micellizing fatty acids and fatty acid ester compositions and their use in the treatment of disease states” (Micelle BioPharma, Inc., priority 2013, dated 2021)
